Test results published in US9242984B2, “Pyrazolyl derivatives as Syk inhibitors” (Merck Sharp & Dohme Corp., priority 2012, dated 2016).
Where two headings read alike, the source gives them in different places.

Biological target: T1, recombinant human Syk (GST-hSyk fusion protein) (Homo sapiens, UniProt P43405)
T1 construct: purchased Carna Biosciences 08-176
Test: Homogeneous Time-Resolved Fluorescence (HTRF) assay for the recombinant human Syk enzyme
Assay type: biochemical
Conditions: 10-dose titration, 25 μM ATP
Experimental: Syk inhibition may be determined using the following assay protocol:
Homogeneous Time-Resolved Fluorescence (HTRF) Assay for the Recombinant Human Syk Enzyme:
A recombinant GST-hSyk fusion protein was used to measure potency of compounds to inhibit human Syk activity. The recombinant human GST-Syk (Carna Biosciences #08-176) (5 pM final concentration) was incubated with various concentrations of the inhibitor diluted in DMSO (0.1% final concentration) for 10 minutes at room temperature in 15 mM Tris-HCl (pH 7.5), 0.01% tween 20, 2 mM DTT in 384 well plate format. To initiate the reaction the biotinylated substrate peptide (250 nM final concentration) that contains the phosphorylation site for Syk was added with magnesium (5 mM final concentration) and ATP (25 μM final concentration). Final volume of the reaction was 10 μL. Phosphorylation of the peptide was allowed to proceed for 45 minutes at room temperature. To quench the reaction and detect the phosphorylated product, 2 nM of a Europium-anti-phosphotyrosine antibody (Perkin Elmer #AD0161) and 70 nM SA-APC (Perkin-Elmer #CR130-100) were added together in 15 mM Tris pH 7.5, 40 mM EDTA, 0.01% tween 20. Final volume of the quenching solution was 10 μL. The resulting HTRF signal was measured after 30 minutes on an EnVision (Perkin-Elmer) reader using a time-resolved fluorescence protocol. IC50 was determined following 10-dose titration (10 μM to 0.508 nM) and four parameter logistic curve fitting using the Merck Assay Data Analyzer. The rhSyk activity (IC50) is expressed as +++(100 nM or less), ++(between 100 and 1000 nM), +(between 1 and 10 μM).

[1] = IC50 class, read-out: rhSYK Activity

SMILES	IC50 [1]	IC50 (read-out: rhSYK IC50)
Cc1cc(Nc2nccc(C)n2)cc(-c2cnn(CC3OC(=O)NC3C)c2)c1 (single isomer, unassigned) [Example 23.8, 4-methyl-5-[(4-{3-methyl-5-[(4-methylpyrimidin-2-yl)amino]phenyl}-1H-pyrazol-1-yl)methyl]-1,3-oxazolidin-2-one]	≤ 0.1 µM	
Cc1cc(Nc2cc(C3CC3)ccn2)nc(-c2cnn(CCC(=O)O)c2)c1 [Example 1.22, 3-(4-{6-[(4-cyclopropylpyridin-2-yl)amino]-4-methylpyridin-2-yl}-1H-pyrazol-1-yl)propanoic acid]	≤ 0.1 µM	
Cc1cc(Nc2nccc(C(F)F)n2)cc(-c2cnn(CC(O)c3ccccn3)c2)c1 (stereo not drawn) [Example 5.26, 2-[4-(3-{[4-(difluoromethyl)pyrimidin-2-yl]amino}-5-methylphenyl)-1H-pyrazol-1-yl]-1-pyridin-2-ylethanol]	≤ 0.1 µM	
Cc1cc(Nc2nccc(C(F)F)n2)cc(-c2cnn(CC3(O)CCC3)c2)c1 [Example 5.41, 1-{[4-(3-{[4-(difluoromethyl)pyrimidin-2-yl]amino}-5-methylphenyl)-1H-pyrazol-1-yl]methyl}cyclobutanol]	≤ 0.1 µM	
Cc1cc(Nc2nccc(C(F)(F)F)n2)cc(-c2cnn(CC3NC(=O)OC3C)c2)c1 (stereo not drawn) [Example 3.127, 5-methyl-4-{[4-(3-methyl-5-{[4-(trifluoromethyl)pyrimidin-2-yl]amino}phenyl)-1H-pyrazol-1-yl]methyl}-1,3-oxazolidin-2-one]	≤ 0.1 µM	
Cc1cc(Nc2nccc(C(F)(F)F)n2)cc(-c2cnn(CCCN3CCNC3=O)c2)c1 [Example 3.6, 1-{3-[4-(3-methyl-5-{[4-(trifluoro-methyl)pyrimidin-2-yl]amino}-phenyl)-1H-pyrazol-1-yl]-propyl}imidazolidin-2-one]	≤ 0.1 µM	
Cc1cc(Nc2nccc(C(F)F)n2)cc(-c2cnn(CC(O)CC(C)O)c2)c1 (stereo not drawn) [Example 5.29, 1,3,5-trideoxy-1-[4-(3-{[4-(difluoromethyl)pyrimidin-2-yl]amino}-5-methylphenyl)-1H-pyrazol-1-yl]pentitol]	≤ 0.1 µM	
Cc1cc(Nc2nccc(C(C)(F)F)n2)cc(-c2cnn(CC(C)(O)C(C)(C)O)c2)c1 (stereo not drawn) [Example 22.4, 1-[4-(3-{[4-(1,1-difluoroethyl)pyrimidin-2-yl]amino}-5-methylphenyl)-1H-pyrazol-1-yl]-2,3-dimethylbutane-2,3-diol]	≤ 0.1 µM	
Cc1cc(Nc2nccc(C(F)F)n2)cc(-c2cnn(Cc3[nH]cnc3C)c2)c1 [Example 3.109, 4-(difluoromethyl)-N-(3-methyl-5-{1-[(4-methyl-1H-imidazol-5-yl)methyl]-1H-pyrazol-4-yl}phenyl)pyrimidin-2-amine]	≤ 0.1 µM	
Cc1cc(Nc2nccc(C)n2)cc(-c2cnn(CC3OC(=O)NC3(C)C)c2)c1 (stereo not drawn) [Example 3.106, 4,4-dimethyl-5-[(4-{3-methyl-5-[(4-methylpyrimidin-2-yl)amino]phenyl}-1H-pyrazol-1-yl)methyl]-1,3-oxazolidin-2-one]	≤ 0.1 µM	
Cc1cc(Nc2nccc(C(F)F)n2)cc(-c2cnn(C(C)C3CNC(=O)C3)c2)c1 (stereo not drawn) [Example 2.68, 4-{1-[4-(3-{[4-(difluoromethyl)pyrimidin-2-yl]amino}-5-methylphenyl)-1H-pyrazol-1-yl]ethyl}pyrrolidin-2-one]	≤ 0.1 µM	
COC(=O)CCCn1cc(-c2cc(C)cc(Nc3nccc(C(F)(F)F)n3)c2)cn1 [Example 3.49, methyl 4-[4-(3-methyl-5-{[4-(trifluoromethyl)-pyrimidin-2-yl]amino}-phenyl)-1H-pyrazol-1-yl]butanoate]	≤ 0.1 µM	
Cc1cc(Nc2nccc(C(F)(F)F)n2)cc(-c2cnn(CCC(=O)O)c2)c1 [Example 1.2, 3-[4-(3-methyl-5-{[4-(trifluoromethyl)-pyrirnidin-2-yl]amino}-phenyl)-1H-pyrazol-1-yl]-propanoic acid]	≤ 0.1 µM	
Cc1cc(Nc2nccc(C(F)F)n2)cc(-c2cnn(CC3CNC(=O)O3)c2)c1 (stereo not drawn) [Example 2.64, 5-{[4-(3-{[4-(difluoromethyl)pyrimidin-2-yl]amino}-5-methylphenyl)-1H-pyrazol-1-yl]methyl}-1,3-oxazolidin-2-one]	≤ 0.1 µM	
Cc1cc(Nc2nccc(C(F)(F)F)n2)cc(-c2cnn(C[C@H](O)C(=O)O)c2)n1 [Example 11.18, (2S)-2-hydroxy-3-[4-(6-methyl-4-{[4-(trifluoro-methyl)pyrimidin-2-yl]amino}pyridin-2-yl)-1H-pyrazol-1-yl]propanoic acid]	≤ 0.1 µM	
Cc1cc(Nc2nccc(C(F)F)n2)cc(-c2cnn(CC3OC(=O)NC34CC4)c2)c1 (stereo not drawn) [Example 3.92, 7-{[4-(3-{[4-(difluoromethyl)pyrimidin-2-yl]amino}-5-methylphenyl)-1H-pyrazol-1-yl]methyl}-6-oxa-4-azaspiro[2.4]heptan-5-one]	≤ 0.1 µM	
Cc1cc(Nc2nccc([C@H](C)F)n2)cc(-c2cnn(CC(C)(O)CO)c2)c1 (single isomer, unassigned) [Example 25.7]	≤ 0.1 µM	
Cc1cc(Nc2nccc(C(F)F)n2)cc(-c2cnn(CCNS(C)(=O)=O)c2)c1 [Example 27.1, N-(2-(4-(3-((4-(Difluoromethyl)pyrimidin-2-yl)amino)-5-methylphenyl)-1H-pyrazol-1-yl)ethyl)methanesulfonamide]	≤ 0.1 µM	0.0086 µM
Cc1cc(Nc2ncccn2)cc(-c2cnn(Cc3ccc(O)cc3)c2)c1 [Example 2.58, 4-({4-[3-methyl-5-(pyrimidin-2-ylamino)phenyl]-1H-pyrazol-1-yl}methyl)phenol]	≤ 0.1 µM	
Cc1cc(Nc2ncccn2)cc(-c2cnn(C3CC(C(N)=O)C3)c2)c1 (single isomer, unassigned) [Example 31.1, 3-(4-(3-Methyl-5-(pyrimidin-2-ylamino)phenyl)-1H-pyrazol-1-yl)cyclobutanecarboxamide]	≤ 0.1 µM	0.0349 µM
Cc1cc(Nc2nccc(C(F)(F)F)n2)cc(-c2cnn(CC3(O)CCC3)c2)c1 [Example 12.2, 1-{[4-(3-methyl-5-{[4-(trifluoro-methyl)pyrimidin-2-yl]amino}-phenyl)-1H-pyrazol-1-yl]-methyl}-cyclobutanol]	≤ 0.1 µM	
Cc1cc(Nc2nccc(C(C)(F)F)n2)cc(-c2cnn(CC(C)(O)CC#N)c2)c1 (stereo not drawn) [Example 20.9, 4-[4-(3-{[4-(1,1-difluoroethyl)pyrimidin-2-yl]amino}-5-methylphenyl)-1H-pyrazol-1-yl]-3-hydroxy-3-methylbutanenitrile]	≤ 0.1 µM	
CC(=O)N1CCN(C(=O)Cn2cc(-c3cc(C)cc(Nc4nccc(C(F)(F)F)n4)c3)cn2)CC1 [Example 3.7, N-(3-{1-[2-(4-acetylpiperazin-1-yl)-2-oxoethyl]-1H-pyrazol-4-yl}-5-methylphenyl)-4-(trifluoromethyl)-pyrimidin-2-amine]	≤ 0.1 µM	
Cc1cc(Nc2nccc(C(F)F)n2)cc(-c2cnn([C@H]3CC[C@H](C(=O)O)CC3)c2)c1 [Example 2.61, trans-4-[4-(3-{[4-(difluoromethyl)pyrimidin-2-yl]amino}-5-methylphenyl)-1H-pyrazol-1-yl]cyclohexanecarboxylic acid]	≤ 0.1 µM	
COC(=O)C(C)(O)Cn1cc(-c2cc(C)cc(Nc3nccc(C(F)(F)F)n3)c2)cn1 (racemic) [Example 5.4, methyl 2-hydroxy-2-methyl-3-[4-(3-methyl-5-{[4-(trifluoro-methyl)pyrimidin-2-yl]amino}phenyl)-1H-pyrazol-1-yl]propanoate]	≤ 0.1 µM	
Cc1cc(Nc2nccc(C(F)F)n2)cc(-c2cnn(CCNS(=O)(=O)C3CC3)c2)c1 [Example 27.13, N-{2-[4-(3-{[4-(difluoromethyl)pyrimidin-2-yl]amino}-5-methylphenyl)-1H-pyrazol-1-yl]ethyl}cyclopropanesulfonamide]	≤ 0.1 µM	
COC(=O)[C@@H](N)Cn1cc(-c2cc(C)cc(Nc3nccc(C(F)(F)F)n3)c2)cn1 [Example 4.1, methyl 3-[4-(3-methyl-5-{[4-(trifluoromethyl)pyrimidin-2-yl]amino}phenyl)-1H-pyrazol-1-yl]-L-alaninate]	≤ 0.1 µM	0.0274 µM
Cc1cc(Nc2nccc(C(F)F)n2)cc(-c2cnn(CC(C)(C)NC(=O)NCC3CCOCC3)c2)c1 [Example 27.9, 1-{2-[4-(3-{[4-(difluoromethyl)pyrimidin-2-yl]amino}-5-methylphenyl)-1H-pyrazol-1-yl]-1,1-dimethylethyl}-3-(tetrahydro-2H-pyran-4-ylmethyl)urea]	≤ 0.1 µM	
Cc1cc(Nc2nccc(C(F)(F)F)n2)cc(-c2cnn(C(C)c3ccc(C(=O)O)cc3)c2)c1 (stereo not drawn) [Example 1.49, 4-{1-[4-(3-methyl-5-{[4-(trifluoromethyl)pyrimidin-2-yl]amino}phenyl)-1H-pyrazol-1-yl]ethyl}benzoic acid]	≤ 0.1 µM	
Cc1cc(Nc2nccc(C(F)(F)F)n2)cc(-c2cnn(CC(=O)N3[C@H](C)COC[C@H]3C)c2)c1 [Example 3.15, N-[3-(1-{2-[(3r,5r)-3,5-dimethylmorpholin-4-yl]-2-oxoethyl}-1H-pyrazol-4-yl)-5-methylphenyl]-4-(trifluoromethyl)-pyrimidin-2-amine]	≤ 0.1 µM	
